In ChEMBL document CHEMBL1201862, “PubChem BioAssay data set” (2004):
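Protocol summary: plate cells (96-well), add compound at 5 concentrations, incubate 48 h, interpolate endpoints linearly. GI50 is the concentration that inhibits growth by half.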 Activity calls are given as the source filed them. No stated cut-off is given here; in the data, active = GI50 up to about 1.1 µM and inactive = higher.

How the values were obtained:
Test in all cases: NCI-60 cell line screen, 48 h
786-0 = tested on: 786-0
A498 = tested on: A498
A549 = tested on: A549
BT-549 = tested on: BT-549
CAKI-1 = tested on: CAKI-1
HCT-15 = tested on: HCT-15
HOP-92 = tested on: HOP-92
LOX IMVI = tested on: LOX IMVI
MDA-MB-435 = tested on: MDA-MB-435
MDA-N = tested on: MDA-N
NCI-H226 = tested on: NCI-H226
NCI-H23 = tested on: NCI-H23
NCI-H460 = tested on: NCI-H460
OVCAR-5 = tested on: OVCAR-5
SF-268 = tested on: SF-268
SK-MEL-5 = tested on: SK-MEL-5
SNB-19 = tested on: SNB-19
TK-10 = tested on: TK-10
MCF7 = tested on: MCF7
SF-539 = tested on: SF-539

Compound | GI50 (786-0) | GI50 (A498) | GI50 (A549) | GI50 (BT-549) | GI50 (CAKI-1) | GI50 (HCT-15) [µM] | GI50 (HOP-92) | GI50 (LOX IMVI) | GI50 (MDA-MB-435) | GI50 (MDA-N) | GI50 (NCI-H226) | GI50 (NCI-H23) | GI50 (NCI-H460) | GI50 (OVCAR-5) | GI50 (SF-268) | GI50 (SK-MEL-5) | GI50 (SNB-19) | GI50 (TK-10) | GI50 (MCF7) | GI50 (SF-539)
O=C(NCCO)c1ccc(Cl)cc1 | > 100 µM (inactive) | > 100 µM (inactive) | > 100 µM (inactive) | > 100 µM (inactive) | > 100 µM (inactive) | > 100 | > 100 µM (inactive) | > 100 µM (inactive) | > 100 µM (inactive) | > 100 µM (inactive) | > 100 µM (inactive) | > 100 µM (inactive) | > 100 µM (inactive) | > 100 µM (inactive) | > 100 µM (inactive) | > 100 µM (inactive) | > 100 µM (inactive) | > 100 µM (inactive) |  | 
COc1ccc(NCc2c(O)ccc3ccccc23)cc1 | 16.4 µM (inactive) | 24.6 µM (inactive) | 61.4 µM (inactive) | 18.6 µM (inactive) | 22.3 µM (inactive) | 13.7 | 16.1 µM (inactive) | 15.9 µM (inactive) | 42.9 µM (inactive) | 30.1 µM (inactive) |  | 36.3 µM (inactive) | 49.9 µM (inactive) | 11.3 µM (inactive) | 19.9 µM (inactive) | 12.4 µM (inactive) | > 100 µM (inactive) | 17.9 µM (inactive) | 28.8 µM (inactive) | 13.2 µM (inactive)
CCOC(=O)c1cc2c3c(c(C(C)=O)c(O)c2[nH]1)N(C(C)=O)CC3 | > 100 µM (inactive) | 52.5 µM (inactive) |  | 52 µM (inactive) | > 100 µM (inactive) | 49.7 |  | > 100 µM (inactive) | 89.3 µM (inactive) | > 100 µM (inactive) | 71.4 µM (inactive) | 46.9 µM (inactive) | > 100 µM (inactive) | > 100 µM (inactive) | 55.8 µM (inactive) | 52.7 µM (inactive) | > 100 µM (inactive) | 40.6 µM (inactive) | 55.8 µM (inactive) | 48.9 µM (inactive)
NCCC1(N)CCNCC1 | > 100 µM (inactive) | > 100 µM (inactive) | > 100 µM (inactive) | > 100 µM (inactive) | > 100 µM (inactive) | > 100 | < 0.01 µM (active) |  | > 100 µM (inactive) | > 100 µM (inactive) | > 100 µM (inactive) | > 100 µM (inactive) | > 100 µM (inactive) | > 100 µM (inactive) | > 100 µM (inactive) | > 100 µM (inactive) | > 100 µM (inactive) | > 100 µM (inactive) |  | > 100 µM (inactive)
C[S+]([O-])c1ncc2c(n1)-c1ccccc1OC2 (stereo not given) | > 100 µM (inactive) |  | > 100 µM (inactive) | > 100 µM (inactive) | 83.8 µM (inactive) | 88.1 | 49.3 µM (inactive) | > 100 µM (inactive) | > 100 µM (inactive) | > 100 µM (inactive) | > 100 µM (inactive) | > 100 µM (inactive) | > 100 µM (inactive) | > 100 µM (inactive) | > 100 µM (inactive) | 78.3 µM (inactive) | > 100 µM (inactive) | 45.7 µM (inactive) | 38.5 µM (inactive) | > 100 µM (inactive)
COC(=O)C1CC=C(SC(=O)c2ccccc2)N1C(=O)c1ccccc1 (stereo not given) | > 100 µM (inactive) | > 100 µM (inactive) | > 100 µM (inactive) | > 100 µM (inactive) | > 100 µM (inactive) | > 100 | > 100 µM (inactive) |  | > 100 µM (inactive) | > 100 µM (inactive) |  | > 100 µM (inactive) | 39.6 µM (inactive) | > 100 µM (inactive) | > 100 µM (inactive) | > 100 µM (inactive) | > 100 µM (inactive) | > 100 µM (inactive) | > 100 µM (inactive) | 
C=C1c2ccccc2C(=O)c2c1c1c(C(=O)OC)c(O)ccc1n2Cc1ccccc1 | 0.197 µM (active) |  | 1.11 µM (active) | 0.585 µM (active) | 0.407 µM (active) | 0.232 | < 0.01 µM (active) | 0.297 µM (active) | 0.255 µM (active) | 0.32 µM (active) |  | 0.713 µM (active) | 0.908 µM (active) | 1.1 µM (active) | 0.175 µM (active) | 0.7 µM (active) | 0.35 µM (active) | 0.459 µM (active) | 0.249 µM (active) | 0.228 µM (active)
CSc1nncc2[nH]cnc12 | > 100 µM (inactive) | > 100 µM (inactive) | > 100 µM (inactive) | > 100 µM (inactive) | > 100 µM (inactive) | > 100 |  |  | > 100 µM (inactive) | > 100 µM (inactive) | > 100 µM (inactive) | > 100 µM (inactive) | > 100 µM (inactive) | > 100 µM (inactive) | > 100 µM (inactive) | > 100 µM (inactive) | > 100 µM (inactive) | > 100 µM (inactive) | > 100 µM (inactive) | > 100 µM (inactive)
CC(C)=CCC/C(C)=C/CCC(C(=O)COCc1ccccc1)P1(=O)OC(C)(C)CN1C(C)(C)C (stereo not given) | 48.3 µM (inactive) |  | 35.6 µM (inactive) | > 100 µM (inactive) | > 100 µM (inactive) | 48.6 |  | 27.5 µM (inactive) | 51.4 µM (inactive) | > 100 µM (inactive) | 30.6 µM (inactive) | 86.5 µM (inactive) | 52.2 µM (inactive) | > 100 µM (inactive) | 33.1 µM (inactive) | 47.6 µM (inactive) | > 100 µM (inactive) | > 100 µM (inactive) | 33.8 µM (inactive) | > 100 µM (inactive)
Nc1ncnc2c1N=C(c1ccccc1)CC(c1ccccc1)N2 (stereo not given) | > 100 µM (inactive) |  | > 100 µM (inactive) | > 100 µM (inactive) | > 100 µM (inactive) | > 100 | > 100 µM (inactive) | > 100 µM (inactive) | > 100 µM (inactive) | > 100 µM (inactive) | > 100 µM (inactive) | > 100 µM (inactive) |  | > 100 µM (inactive) | > 100 µM (inactive) |  | > 100 µM (inactive) | > 100 µM (inactive) | > 100 µM (inactive) | > 100 µM (inactive)
Cc1ccc(C(=O)NCc2ccccc2)cc1/N=N/N(C)C | > 100 µM (inactive) |  | > 77.8 µM (inactive) | > 100 µM (inactive) | > 100 µM (inactive) | > 83 | 65 µM (inactive) | 58.1 µM (inactive) | > 100 µM (inactive) | > 100 µM (inactive) | > 100 µM (inactive) | > 100 µM (inactive) | > 100 µM (inactive) | > 100 µM (inactive) | > 62.5 µM (inactive) | > 74.3 µM (inactive) | > 100 µM (inactive) | > 100 µM (inactive) | > 100 µM (inactive) | > 100 µM (inactive)
CN(c1ccc(Cl)cc1)S(=O)(=O)c1cccc([N+](=O)[O-])c1 | > 100 µM (inactive) |  | > 100 µM (inactive) | 32.7 µM (inactive) | 64.6 µM (inactive) | 47.1 |  | 41.9 µM (inactive) | 34.8 µM (inactive) | 67.9 µM (inactive) | 53.8 µM (inactive) | 34.7 µM (inactive) | 42.3 µM (inactive) | 87.3 µM (inactive) | 66.7 µM (inactive) | 27.4 µM (inactive) | > 100 µM (inactive) | > 100 µM (inactive) | 56.1 µM (inactive) | 66.4 µM (inactive)
C#CCSc1cnc2ccccc2c1Sc1c[nH]c2ccccc2c1=O | 12.4 µM (inactive) |  | 14.4 µM (inactive) | 28.7 µM (inactive) | 23.7 µM (inactive) | 16.1 | 16.1 µM (inactive) | 13.8 µM (inactive) | 23.6 µM (inactive) | 18.1 µM (inactive) | 21 µM (inactive) | 15.4 µM (inactive) | 11.7 µM (inactive) | 32.7 µM (inactive) | 29.9 µM (inactive) | 15.6 µM (inactive) | 16.1 µM (inactive) | 40.2 µM (inactive) | 6.82 µM (inactive) | 28.6 µM (inactive)
CC(C)(C)C1=NC(=S)SC2=NC(=O)C3(NN21)c1ccccc1-c1ccccc13 | 9.57 µM (inactive) |  | 7.26 µM (inactive) | 6.35 µM (inactive) | > 10 µM (inactive) | 9.27 | > 10 µM (inactive) | > 10 µM (inactive) | > 10 µM (inactive) | 8.41 µM (inactive) | 6.07 µM (inactive) | > 10 µM (inactive) | 4.61 µM (inactive) |  | > 10 µM (inactive) | 3.44 µM (inactive) | > 10 µM (inactive) | > 10 µM (inactive) | 4.43 µM (inactive) | 
Cc1cc(S(=O)(=O)NC2=NCCCN2)c(S)cc1Cl | 20.8 µM (inactive) | > 100 µM (inactive) | 21.6 µM (inactive) | 0.721 µM (active) | 16.8 µM (inactive) | 43.6 |  | 22.1 µM (inactive) | 18.3 µM (inactive) | 43.9 µM (inactive) | 22.3 µM (inactive) |  | 39.3 µM (inactive) | 33 µM (inactive) | 87.1 µM (inactive) | 17.9 µM (inactive) | 40.6 µM (inactive) | 26.9 µM (inactive) | > 10 µM (inactive) | 57.8 µM (inactive)
COc1cccc(-c2cc(=O)c3ccccc3o2)c1N | 71 µM (inactive) |  | > 91.8 µM (inactive) | > 100 µM (inactive) | > 100 µM (inactive) | > 100 | > 83.4 µM (inactive) | > 100 µM (inactive) | 23 µM (inactive) | 24.4 µM (inactive) | 63 µM (inactive) | 72.9 µM (inactive) | > 59 µM (inactive) | > 91 µM (inactive) | 61.2 µM (inactive) | 42.8 µM (inactive) | 51.9 µM (inactive) | > 100 µM (inactive) | > 100 µM (inactive) | 63.5 µM (inactive)
